US20180003695A1, “METHOD FOR QUANTITATIVE MEASUREMENT OF GASTRIC ACIDITY USING 13C CARBONATE SALT” (priority 2010, published 2018)

Tests used:
gastric acid secretion = test: Correlation between enzyme activity of CYP2C19 and CYP3A4 and effect of omeprazole, 13C-CaCO3 expiration test; type: in vivo, rats; conditions: ketoconazole 50 mg/kg oral 30 min before omeprazole 3 mg/kg i.v.; 13C-CaCO3 100 μmol/kg oral 2 hours after omeprazole
Method: Fasted rats (7 weeks old, female, SD rats) were used as experimental animals. The rats were divided into an omeprazole administration group (n=3), a ketoconazole pre-treatment group (n=3), and a control group (n=3).
Expired air was then collected. […] Expired air was then collected.
The above expired air was used as test samples, and Δ^13C (‰) was measured with a mass spectrometer for expired air analysis (ABCA: manufactured by SerCon) from the concentration of ^13CO2 excreted in the expired air.

[1] = system: platelet aggregation by ADP stimulation; conditions: clopidogrel 10 mg/kg oral, ketoconazole 50 mg/kg oral 30 min before, blood 2 hours after clopidogrel
Excerpt: Fasted rats (7 weeks old, female, SD rats) were used as experimental animals.

CC(=O)N1CCN(c2ccc(OCC3COC(Cn4ccnc4)(c4ccc(Cl)cc4Cl)O3)cc2)CC1 (centres unmarked) [ketoconazole]
Δ13C (‰) in the expired air after 13C-CaCO3, effect of ketoconazole pre-treatment before omeprazole (gastric acid secretion): decreased

COC(=O)[C@H](c1ccccc1Cl)N1CCc2sccc2C1 [clopidogrel]
platelet aggregation inhibitory action of clopidogrel under ketoconazole pre-treatment [1]: reduced
